“And” between values parts separate entries of the source, which are not always exact repeats. Equal values may be shown once.
What was measured:
Conditions in all cases: at 1 µM
[1] = biological target: T1, Inhibitor of nuclear factor kappa-B kinase subunit alpha (Homo sapiens) (UniProt O15111)
T1 sequence (whole entry): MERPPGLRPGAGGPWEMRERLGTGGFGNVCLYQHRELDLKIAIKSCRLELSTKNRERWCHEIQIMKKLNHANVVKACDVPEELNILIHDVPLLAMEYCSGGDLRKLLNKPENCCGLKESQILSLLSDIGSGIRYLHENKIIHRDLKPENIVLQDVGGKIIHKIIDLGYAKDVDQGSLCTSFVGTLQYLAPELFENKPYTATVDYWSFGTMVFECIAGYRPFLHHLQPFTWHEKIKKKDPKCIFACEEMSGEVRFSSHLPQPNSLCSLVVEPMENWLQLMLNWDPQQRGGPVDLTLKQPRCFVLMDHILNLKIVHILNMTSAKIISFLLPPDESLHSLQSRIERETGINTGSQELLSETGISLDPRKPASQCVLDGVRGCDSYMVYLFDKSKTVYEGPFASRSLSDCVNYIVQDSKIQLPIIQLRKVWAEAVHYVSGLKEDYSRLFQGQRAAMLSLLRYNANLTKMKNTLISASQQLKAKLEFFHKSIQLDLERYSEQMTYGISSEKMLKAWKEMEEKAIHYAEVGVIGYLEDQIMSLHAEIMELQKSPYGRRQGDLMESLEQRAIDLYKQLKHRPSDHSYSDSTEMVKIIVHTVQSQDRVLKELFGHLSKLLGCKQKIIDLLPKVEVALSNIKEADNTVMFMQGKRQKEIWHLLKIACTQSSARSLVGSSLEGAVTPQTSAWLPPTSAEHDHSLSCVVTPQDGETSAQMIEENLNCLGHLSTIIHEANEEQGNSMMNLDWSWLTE

[2] = biological target: T2, Inhibitor of nuclear factor kappa-B kinase subunit epsilon (Homo sapiens) (UniProt Q14164)
T2 sequence (whole entry): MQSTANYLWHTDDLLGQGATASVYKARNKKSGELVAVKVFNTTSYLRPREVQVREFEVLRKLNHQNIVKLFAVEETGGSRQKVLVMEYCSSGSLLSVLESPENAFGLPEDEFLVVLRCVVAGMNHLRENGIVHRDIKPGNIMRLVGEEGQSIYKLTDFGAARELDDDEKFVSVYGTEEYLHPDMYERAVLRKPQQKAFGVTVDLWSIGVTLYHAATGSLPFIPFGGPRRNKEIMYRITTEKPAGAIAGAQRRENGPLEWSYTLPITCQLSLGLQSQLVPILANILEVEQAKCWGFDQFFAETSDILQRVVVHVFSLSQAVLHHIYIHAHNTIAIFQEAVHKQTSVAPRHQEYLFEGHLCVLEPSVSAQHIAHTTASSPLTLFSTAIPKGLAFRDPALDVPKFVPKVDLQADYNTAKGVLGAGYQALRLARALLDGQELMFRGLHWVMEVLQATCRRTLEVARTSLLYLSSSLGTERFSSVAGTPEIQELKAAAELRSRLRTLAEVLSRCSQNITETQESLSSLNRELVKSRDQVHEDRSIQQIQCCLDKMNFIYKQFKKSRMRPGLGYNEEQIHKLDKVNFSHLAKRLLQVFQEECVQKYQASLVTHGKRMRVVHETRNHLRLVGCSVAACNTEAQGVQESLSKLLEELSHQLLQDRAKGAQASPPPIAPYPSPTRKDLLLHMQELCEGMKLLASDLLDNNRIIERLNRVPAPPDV

[3] = biological target: T3, Serine/threonine-protein kinase TBK1 (Homo sapiens) (UniProt Q9UHD2)
T3 sequence (whole entry): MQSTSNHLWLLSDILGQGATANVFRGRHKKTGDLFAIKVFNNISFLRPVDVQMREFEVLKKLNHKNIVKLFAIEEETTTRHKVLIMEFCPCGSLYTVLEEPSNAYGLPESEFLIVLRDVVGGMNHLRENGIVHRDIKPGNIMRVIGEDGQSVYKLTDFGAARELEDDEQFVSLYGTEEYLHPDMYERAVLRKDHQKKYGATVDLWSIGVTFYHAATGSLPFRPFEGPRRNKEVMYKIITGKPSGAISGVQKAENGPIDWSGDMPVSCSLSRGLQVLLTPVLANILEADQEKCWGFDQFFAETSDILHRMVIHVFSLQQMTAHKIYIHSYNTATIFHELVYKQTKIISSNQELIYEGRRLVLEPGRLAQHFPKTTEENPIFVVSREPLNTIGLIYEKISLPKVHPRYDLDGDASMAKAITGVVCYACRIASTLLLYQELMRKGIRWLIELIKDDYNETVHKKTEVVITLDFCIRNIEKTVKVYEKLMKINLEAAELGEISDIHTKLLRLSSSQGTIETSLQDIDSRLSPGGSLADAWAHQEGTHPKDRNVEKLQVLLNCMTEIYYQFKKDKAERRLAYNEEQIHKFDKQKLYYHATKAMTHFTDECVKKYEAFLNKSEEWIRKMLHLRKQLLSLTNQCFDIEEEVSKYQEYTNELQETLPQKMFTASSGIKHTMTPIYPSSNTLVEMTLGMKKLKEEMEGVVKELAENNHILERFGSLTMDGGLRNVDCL

Row | inhibition [1] | inhibition [2] | inhibition [3] | SMILES
1 | 4% | 9% and 10% | 18% | CCCNc1cccc(-n2ncc3c(N/N=C/c4ccncc4)ncnc32)c1
2 | -2% and -1% | 2% and 4% | 8% and 3% | N#Cc1ccc(Oc2nccc(-c3c(-c4ccc(F)cc4)ncn3C3CCNCC3)n2)cc1
3 | 3% and 7% | -3% | -6% and -5% | COc1ccc(CNC(=O)c2ccc(-c3cc(-c4nnc(C)o4)ccc3C)cc2)cc1
4 | -1% | 1% and -4% | 11% and 9% | O=C(O[C@H]1CN[C@H](C#Cc2cc3ncnc(Nc4ccc5c(ccn5Cc5cc(F)ccc5F)c4)c3s2)C1)N1CCOCC1
5 | 2% and 14% | 4% and 6% | 37% and 33% | O=C(Nc1n[nH]c2nc(-c3ccc(O)cc3)c(Br)cc12)C1CC1
6 | 4% | -2% | 0% | CN1CCN(CCCNc2nc3ccc(Oc4ccc(NC(=O)Nc5cc(C(F)(F)F)ccc5F)cc4)cc3[nH]2)CC1
7 | 3% and 4% | 16% and 15% | 58% and 55% | O=C1NC(=O)C(c2cccc(Cl)c2)=C1Nc1ccc(O)c(Cl)c1
8 | 1% | 3% | 11% and 8% | CCS(=O)(=O)c1ccc(OC)c(Nc2ncc(-c3cccc(OC)c3)o2)c1
9 | 1% | 1% and 3% | 9% and 7% | O=C1NC(=O)C(c2ccccc2Cl)=C1Nc1cccc(O)c1
10 | -8% | 5% and 6% | 33% and 39% | Cc1ccc(NC(=O)c2ccnc(N3CCCC3)c2)cc1-c1ccc(C(=O)NCC2CC2)cc1
11 | 2% and 6% | 85% | 89% and 88% | NS(=O)(=O)c1ccc(NC=C2C(=O)Nc3ccc4ncsc4c32)cc1
12 | 0% | 1% and -2% | 0% and 2% | Cc1ccc(C(=O)NC2CC2)cc1-c1ccc2[nH]ncc2c1
13 | 5% | 1% and 2% | -4% and -1% | COc1ccc2cc(-c3c(-c4ccncc4)nc(-c4ccc(S(C)(=O)=O)cc4C)n3C)ccc2c1
14 | 2% and -8% | -2% and 0% | 1% and 2% | Nc1ccc(C#Cc2cncnc2Nc2ccc(OCc3cccc(F)c3)c(Cl)c2)cc1
15 | 17% and 19% | 99% and 98% | 85% and 87% | CCn1c(-c2nonc2N)nc2c(C#CC(C)(C)O)nc(O[C@@H](CN)c3ccccc3)cc21
16 | 0% | 3% and 4% | 5% and 6% | CN(C)CCOc1ccc(-c2cc(-c3ccc4c(c3)CCC4=NO)c(-c3ccncc3)o2)cc1
17 | 5% and 3% | 1% | 35% and 33% | COc1cc2ncn(-c3cc(OCc4cccs4)c(C(N)=O)s3)c2cc1OC
18 | 2% and 3% | -1% and 0% | -3% and 0% | COc1cc(N2CCN(C(C)C)CC2)ccc1Nc1nc(Nc2cccc(F)c2C(=O)O)c2cc[nH]c2n1

Row | inhibition [1] | inhibition [2] | inhibition [3] | SMILES
19 | 2% | -3% and -1% | 1% and -2% | CS(=O)(=O)CCNCc1nc(-c2ccc3ncnc(Nc4ccc(F)c(Cl)c4)c3c2)cs1
20 | 2% | 1% and 0% | -2% and 0% | CC1=C(C(=O)Nc2cc(Cl)c3[nH]ncc3c2)C(c2ccc(C(F)(F)F)cc2)CC(=O)N1 (stereo not drawn)
21 | 10% and 11% | 3% and 2% | 3% | O=C1Nc2ccc(I)cc2C1=Cc1cc(Br)c(O)c(Br)c1
22 | -2% and 3% | -1% and -2% | -6% and -3% | COc1ccc(-c2nn3ncccc3c2-c2ccnc(Nc3ccc(Cl)c(C(F)(F)F)c3)n2)cc1
23 | 2% and 1% | 0% and 6% | 2% and 6% | CN(C)c1cc2c(Nc3ccc4nc(Cc5ccccc5)[nH]c4c3)ncnc2cn1
24 | 7% and 19% | 29% and 27% | 28% and 31% | COc1cccc(-n2ncc3c(N/N=C/c4ccc(C(=O)NCCN(C)C)cc4)ncnc32)c1
25 | -1% and -2% | 18% and 19% | 10% and 14% | CCN(CC)Cc1ccc(Nc2nccc(-c3cnn4ncccc34)n2)cc1
26 | 1% and 0% | 13% | 25% and 30% | O=C1Nc2ccccc2/C1=C1\CCc2cc(O)ccc21
27 | 2% | 26% and 27% | 27% | Cc1ccc(Nc2ccnc(Nc3cccc(C(N)=O)c3)n2)cc1O
28 | 1% | 1% and 0% | 3% and 1% | NC(=O)c1ccc2c(-c3ccnc(NCCCO)n3)c(-c3ccc(F)cc3)nn2c1
29 | 4% and 5% | 1% and 3% | 0% and 3% | CCNC(=O)O[C@H]1CN[C@H](C#Cc2cc3ncnc(Nc4ccc(OCc5cccc(F)c5)c(Cl)c4)c3s2)C1
30 | 2% and 3% | 2% and -2% | 1% and 2% | COc1ccc(-c2cc3c(N)ncnc3o2)cc1
31 | 0% | -2% and -1% | 0% and -2% | CCc1nn2ncccc2c1-c1ccnc(NC2CC2)n1
32 | 5% and 4% | -1% and 0% | -2% and -1% | c1ccc(-c2n[nH]cc2-c2ccnc(-c3ccc(OCCN4CCOCC4)cc3)c2)nc1
33 | -4% and -3% | 11% and 9% | 9% and 11% | CCCN1CCCC(c2ccc(Nc3nc(Nc4cc(F)ccc4C(N)=O)c4cc[nH]c4n3)c(OC)c2)C1 (stereo not drawn)
34 | 18% and 0% | -3% and -1% | 2% and 0% | Fc1ccc(-c2ncn(C3CCNCC3)c2-c2ccnc(Oc3ccc(F)c(F)c3)n2)cc1
35 | 2% and -6% | -1% and 0% | -3% and -1% | CN(C)CCOc1ccc(-c2nc(-c3ccncc3)c(-c3ccc4c(c3)CC/C4=N\O)[nH]2)cc1

Row | SMILES | inhibition [1] | inhibition [2] | inhibition [3]
36 | CNC(=O)Oc1cc(C)c(/C=C/c2cncc(C(=O)NC)c2)c(C)c1 | -3% and 5% | -1% | -1%
